Assay results taken from patent publication US20100210611A1, “COMBINATION THERAPY” (priority 2007, published 2010).
“And” between values parts separate entries of the source, which are not always exact repeats. Identical values can stand only once.

Legend:
Type in all cases: physicochemical
[1] = Blend uniformity (individual capsule assay); conditions: HPLC, Mean ± RSD
Protocol: To assess blend uniformity, capsules from each blend were opened and rinsed with methanol. The solution was sonicated for 5 minutes at room temperature, centrifuged at 3000 rpm for 15 minutes then assayed using a UV-VIS spectrophotometer at a wavelength of 346 nm. […]
To assess blend uniformity, the blend was sampled randomly from the glass vial. The drugs were extracted analogous to that described in section Blend Uniformity for Example 1. However, the content of montelukast acid and mometasone furoate were analyzed by High Performance Liquid Chromatography (HPLC) employing a phenyl column with a controlled temperature of 50° C., a mixture of water containing 0.2% trifluoroacetic acid (TFA) and acetonitrile containing 0.2% TFA (53:47) as the mobile phase at a flow rate 2 ml/min and UV-detection at 248 nm.
The blend uniformity was assessed in a manner analogous to that described in the Blend Uniformity section in Example 4, except the content of montelukast acid and ciclesonide were analyzed by High Performance Liquid Chromatography (HPLC) employing a phenyl column with a controlled temperature of 50° C., a mixture of water containing 0.2% trifluoroacetic acid (TFA) and acetonitrile containing 0.2% TFA (40:60) at a flow rate 2 ml/min and UV-detection at 248 nm.

[2] = Dose uniformity, Dosage Unit Sampling Apparatus (DUSA), USP <601>; conditions: Spinhaler; for Total recovered / amount in Device + Capsule: listed as MOM; for amount in Device + Capsule: nominal 1000 μg MON, 400 μg MOM
Protocol: Dose uniformity was determined using Apparatus B (Dosage Unit Sampling Apparatus—DUSA) at a flow rate of 100 L/min (test described in United States Pharmacopoeia (USP) 27 Chapter <601>). The USP recommends selecting a flow rate that creates a pressure drop of 4 kPa across the inhaler. With the Spinhaler, a 4 kPa pressure drop could not be achieved even at the maximum flow rate of 100 L/min. Based on the recommendations of Byron, et al., a flow rate of 100 L/min was selected since the Spinhaler is a low resistance device. See Michael Hindle and Peter R. Byron, “Dose emissions from marketed dry powder inhalers”, International Journal of Pharmaceutics 116 (1995) 169-177. The test was run for 2.4 seconds in order to pull 4 L of air. After a shot had been delivered, all pieces of the DUSA including the mouthpiece adapter were rinsed with solvent. To determine the amount of drug retained in the inhaler, all pieces of the inhaler were rinsed with solvent including the interior of the capsule. The samples were then assayed using the UV-Vis spectrophotometer.
Shot weight was obtained by measuring the weight loss due to the actuation of the device. The device was tared, a “shot” was wasted in the DUSA and the device was re-weighed to obtain the delivered shot weight. Dose and shot weight were deemed acceptable if they were within 75% to 125% of the theoretical values (USP <601>).
(§1) Dose Uniformity (DU) was performed according to USP Chapter <601> by using DUSA Apparatus B with the Spinhaler® device which is analogous to that described in section Dose Uniformity for Example 1. However, the HPLC was used to analyze the content of the drugs as described in the Blend Uniformity in this example.
as §1, with “Uniformity” for “Uniformity (DU)”, “device and in a manner” for “device which is”, “Uniformity in” for “Uniformity for”, “Example 4, except” for “Example 1. However,”

[3] = Aerodynamic particle size distribution, Andersen cascade impaction (ACI); conditions: Spinhaler; for MMAD: cutoff diameter based on airflow rate of 28.3 L/min; for amount in ACI: including mouthpiece adapter
Text: The Andersen cascade impaction (ACI) (Apparatus 3) was the device used to determine the aerodynamic size distribution. The impaction provided in vitro measurements of the fraction of the aerosol that has the potential to reach the alveolar region of the lung. This value is represented by the portion of particles detected below plate 2. The impaction was operated at the flow rate and test time according to the method described in USP <601>. Because the Spinhaler® is a low resistance device, it is difficult to achieve a pressure drop of 4 kPa, an adjustment of the air flow rate at the intake of the flow control was performed, as discussed above. Each impaction plate was coated with silicone grease (316 Dow Corning) to prevent particles from bouncing off the plates and returning to the air stream. All stages were used since the test flow rate was less than 60 L/min. All pieces of the impaction including the inhaler and capsule were rinsed with solvent, diluted to suitable volumes, sonicated, centrifuged and assayed using the UV-VIS spectrophotometer. The respirable portion was quantified by the in vitro fine particle fraction and fine particle mass. Dose uniformity and cascade impaction tests were carried out at controlled temperature (20-25° C.) and humidity (50% RH). […]
Aerodynamic size distribution was performed according to USP Chapter <601> by using ACI Apparatus 3 with the Spinhaler® device analogous to that described in section Aerodynamic Particle Size Distribution for Example 1. However, the HPLC was used to analyze the content of the drugs as described in the Blend Uniformity in this example.
Aerodynamic size distribution was performed according to USP Chapter <601> by using ACI Apparatus 3 with the Spinhaler® device in a manner analogous to that described in section Aerodynamic Particle Size Distribution in Example 4. The content of the drugs were analyzed as described in the Blend Uniformity in this example.

[4] = Particle size of unmilled and jet milled API
[5] = Moisture and light sensitivity
[6] = Example 5 blend, listed as ciclesonide
[7] = Example 4 blend, flow 61.5 L/min for 3.9 sec
[8] = Example 4 blend, flow 62.3 L/min for 3.9 sec
[9] = Example 4 blend, flow 62.8 L/min for 3.8 sec
[10] = Example 4 blend, listed as mometasone furoate
[11] = Milled API, Microtrac data, after sonication for 60 seconds
[12] = Unmilled API, optical microscopy

With `CC(C)C(=O)OCC(=O)[C@@]12O[C@H](C3CCCCC3)O[C@@H]1C[C@H]1[C@@H]3CCC4=CC(=O)C=C[C@]4(C)[C@H]3[C@@H](O)C[C@@]12C` [Ciclesonide, ciclesonide] the “Amount Recovered (μg/Capsule)” value ([1]; Example 5 blend (montelukast acid 4%, ciclesonide 0.64%)) was 150.9 µg and 146.7 µg and 157.6 µg, the “Amount Recovered (μg/Capsule)” value ([1]; Example 5 blend (montelukast acid 4%, ciclesonide 0.64%), mean of three capsules) was 151.1 ± 3.3 µg and the “Amount Recovered, %” value ([1]; Example 5 blend) was 93.3% and 93.7% and 92.5%. The “Amount Recovered, %” value ([1]; Example 5 blend, mean of three capsules) was 93.2 ± 0.6%, the “DU based on nominal dose, % (Device + Capsule)” value ([2]; Example 5 blend) was 35.2% and the “DU based on nominal dose, % (printed in Adapter + Filter column)” value ([2]; Example 5 blend) was 61.7%. For the same compound, the “DU based on total recovered, % (Device + Capsule)” value ([2]; Example 5 blend) was 36.3%, the “DU based on total recovered, % (printed in Adapter + Filter column)” value ([2]; Example 5 blend) was 63.7% and the FPD ([3]; Example 5 blend) was 33.6 µg and 31.1 µg and 41.4 µg. The FPF ([3]; Example 5 blend) was 30.6% and 29.1% and 33.9%, the GSD ([3]; Example 5 blend) was 1.7 and 1.5 and the Total recovered ([3]; Example 5 blend) was 177 µg and 160 µg and 178 µg. For the same compound, the amount in inhaler ([3]; Example 5 blend) was 67 µg and 53 µg and 56 µg, the MMAD ([3]; Example 5 blend) was 3.6 μm and 3.8 μm and the MMAD [3, 6] was 3.7 μm. For the same compound, the MMAD ([3]; Example 5 blend, mean) was 3.7 μm, the “amount in ACI” value ([3]; Example 5 blend) was 110 µg and 107 µg and 122 µg and the “amount in ACI” value ([3]; Example 5 blend, mean) was 113 µg. For the same compound, the FPF [3, 6] was 31%, the FPD ([3]; Example 5 blend, mean) was 35.5 µg and the FPF ([3]; Example 5 blend, mean) was 31.2%. It also gave a GSD ([3]; Example 5 blend, mean) of 1.6, a Total recovered ([3]; Example 5 blend, mean) of 172 µg and an amount in inhaler ([3]; Example 5 blend, mean) of 59 µg.
With `C[C@@H]1C[C@H]2[C@@H]3CCC4=CC(=O)C=C[C@]4(C)[C@@]3(Cl)[C@@H](O)C[C@]2(C)[C@@]1(OC(=O)c1ccco1)C(=O)CCl` [Mometasone Furoate, mometasone furoate] the “Amount Recovered (μg/Capsule)” value ([1]; Example 4 blend (montelukast acid 4%, mometasone furoate 1.6%)) was 386.8 µg and 371.6 µg and 389.5 µg, the “Amount Recovered (μg/Capsule)” value ([1]; Example 4 blend (montelukast acid 4%, mometasone furoate 1.6%), mean) was 382.6 ± 2.6 µg and the “Amount Recovered, %” value ([1]; Example 4 blend) was 93.9% and 93.5% and 95.8%. The “Amount Recovered, %” value ([1]; Example 4 blend, mean) was 94.4 ± 1.4%, the “DU based on nominal dose, % (Device + Capsule)” value ([2]; Example 4 blend) was 44.5% and the “DU based on nominal dose, % (printed in Adapter + Filter column)” value ([2]; Example 4 blend) was 55.5%. The “DU based on total recovered, % (Device + Capsule)” value ([2]; Example 4 blend) was 44.5%, the “DU based on total recovered, % (printed in Adapter + Filter column)” value ([2]; Example 4 blend) was 55.5% and the “Total recovered” value [2, 7] was 397.04 µg and 394.77 µg and 399.78 µg. For the same compound, the “Total recovered” value [2, 8] was 408.74 µg and 407.23 µg, the “Total recovered” value [2, 9] was 394.15 µg and 396.73 µg and the “amount in Device + Capsule” value [2, 7] was 179.94 µg and 178.36 µg and 177.83 µg. The “amount in Device + Capsule” value [2, 8] was 165.97 µg and 165.37 µg, the “amount in Device + Capsule” value [2, 9] was 187.90 µg and 189.44 µg and the FPD ([3]; Example 4 blend) was 43.5 µg and 53.9 µg and 41.8 µg. The FPF ([3]; Example 4 blend) was 21.0% and 22.7% and 22.1%, the GSD ([3]; Example 4 blend) was 1.5 and the Total recovered ([3]; Example 4 blend) was 404 µg and 402 µg and 395 µg. For the same compound, the amount in inhaler ([3]; Example 4 blend) was 198 µg and 165 µg and 206 µg, the MMAD ([3]; Example 4 blend) was 3.9 μm and 4.1 μm and the MMAD [3, 10] was 4.0 μm. For the same compound, the MMAD ([3]; Example 4 blend, mean) was 4.0 μm, the “amount in ACI” value ([3]; Example 4 blend) was 207 µg and 237 µg and 189 µg and the “amount in ACI” value ([3]; Example 4 blend, mean) was 211 µg. It also gave an FPF [3, 10] of 22%, an FPD ([3]; Example 4 blend, mean) of 46.4 µg and an FPF ([3]; Example 4 blend, mean) of 21.9%. The GSD ([3]; Example 4 blend, mean) was 1.4, the Total recovered ([3]; Example 4 blend, mean) was 400 µg and the amount in inhaler ([3]; Example 4 blend, mean) was 189 µg.
In the case of `O=C(NC1CC1)c1cn(-c2cccc(C#Cc3ccc[n+]([O-])c3)c2)c2ncccc2c1=O` [Compound X, N-cyclopropyl-1-[3-(1-oxido-3-pyridinylethynyl)phenyl]-1,4-dihydro[1,8]-naphthyridin-4-one-3-carboxamide], the “Particle size, 95%” value ([4]; Milled API, Aerosizer data) is reported as 7.832 microns, the “Particle size, Mean” value ([4]; Milled API, Aerosizer data) is reported as 2.832 microns and the “Particle size, 95%” value [4, 11] is reported as 4.577 microns. The “Particle size, Mean” value [4, 11] was 2.794 microns, the “Particle size, 95%” value [4, 12] was 37 microns and the “Particle size, Mean” value [4, 12] was 11 microns. For the same compound, the “moisture and light sensitivity” value [5] was “moisture sensitive and photosensitive”.
